The values below come from US6410541B2, “Compounds useful for inhibition of farnesyl protein transferase” (Schering Corporation, priority 1997, dated 2002).

The target of one test is farnesyl protein transferase (UniProt Q02293+Q04631). The experiment in a line: FPT IC50 (inhibition of farnesyl protein transferase, in vitro enzyme assay). The test is classed as biochemical. The conditions noted are these: at 140 nM. The method, then:
(§1) FPT IC50 (inhibition of farnesyl protein transferase, in vitro enzyme assay) and COS Cell IC50 (Cell-Based Assay) were determined following the assay procedures described in WO 95/10516, published Apr. 20. 1995. GGFT IC50 (inhibition of geranylgeranyl protein transferase, in vitro enzyme assay), Cell Mat Assay, and anti-tumor activity (in vivo anti-tumor studies) could be determined by the assay procedures described in WO 95/10516. The disclosure of WO 95/10516 is incorporated herein by reference thereto.
In Table 10, “nM” represents nanomolar.
With `COc1ccc2c(c1)CC(CC(=O)N1CCC([C@H]3c4ncc(Br)cc4CCc4cc(Cl)cc(Br)c43)CC1)C2=O` (stereo partly shown) [Compound 17.0B], the “FPT inhibition at 140 nM (printed in FPT IC50 column)” value was determined as 32% at 140.

The test is the same for the next values; noted with them: in vitro enzyme assay per WO 95/10516.
For the compound `CC(C)(C)OC(=O)NC1CCC(C(=O)N2CCC(C3c4ncc(Br)cc4CCc4cc(Cl)cc(Br)c43)CC2)CC1` (stereo not shown) [Compound 36.0], the IC50 (commonly the midpoint of a concentration-inhibition curve) amounted to 67 nM.

In turn, `CCOC(=O)C(=O)NC1CCCC(C(=O)N2CCC(C3c4ncc(Br)cc4CCc4cc(Cl)cc(Br)c43)CC2)C1` (stereo not shown) [Compound 46.0] returned an IC50 of 34 nM.

In the case of `O=C1CCCCC1CC(=O)N1CCC([C@H]2c3ncc(Br)cc3CCc3cc(Cl)cc(Br)c32)CC1` (stereo partly shown) [Compound 18.0], the IC50 stood at 5 nM.

Take `O=C1CCN(CC(=O)N2CCC([C@H]3c4ncc(Br)cc4CCc4cc(Cl)cc(Br)c43)CC2)CC1` [Compound 14.0]: inhibition was half-maximal at 2.6 nM (IC50).

`O=C(CN1CCC2(CC1)SCCS2)N1CCC([C@H]2c3ncc(Br)cc3CCc3cc(Cl)cc(Br)c32)CC1` [Compound 28.0] showed an IC50 of 35 nM.

`CON=C1CCN(CC(=O)N2CCC([C@H]3c4ncc(Br)cc4CCc4cc(Cl)cc(Br)c43)CC2)CC1` [Compound 27.0] showed an IC50 of 6.7 nM.

`CC(=O)NN=C1CCC(CC(=O)N2CCC([C@H]3c4ncc(Br)cc4CCc4cc(Cl)cc(Br)c43)CC2)CC1` (stereo partly shown) [Compound 30.0] had an IC50 of 4.3 nM.

With `O=C1CCCCC1CCC(=O)N1CCC([C@H]2c3ncc(Br)cc3CCc3cc(Cl)cc(Br)c32)CC1` (stereo partly shown) [Compound 19.0], the IC50 turned out to be 10.7 nM.

In the case of `CON=C1CCC(CC(=O)N2CCC([C@H]3c4ncc(Br)cc4CCc4cc(Cl)cc(Br)c43)CC2)CC1` (stereo partly shown) [Compound 25.0], the midpoint of inhibition, the IC50, lay at 4.4 nM.

Consider `NC(=O)NC1CCCC(C(=O)N2CCC(C3c4ncc(Br)cc4CCc4cc(Cl)cc(Br)c43)CC2)C1` (stereo not shown) [Compound 45.0], for which the half-maximal inhibitory concentration (IC50) came to 17.6 nM.

Consider `O=C(C1CCC2(CC1)OCCO2)N1CCC([C@H]2c3ncc(Br)cc3CCc3cc(Cl)cc(Br)c32)CC1` [Compound 34.0], for which the IC50 came to 10.7 nM.

In turn, `O=C(CC1CCC2(CC1)OCCO2)N1CCC([C@H]2c3ncc(Br)cc3CCc3cc(Cl)cc(Br)c32)CC1` [Compound 24.0] came in with an IC50 of 4.7 nM.

For the compound `NC(=O)NN=C1CCC(CC(=O)N2CCC([C@H]3c4ncc(Br)cc4CCc4cc(Cl)cc(Br)c43)CC2)CC1` (stereo partly shown) [Compound 29.0], the IC50 was determined as 3 nM.

`C[C@]1(CCC(=O)N2CCC([C@H]3c4ncc(Br)cc4CCc4cc(Cl)cc(Br)c43)CC2)CCCCC1=O` [Compound 20.0] displayed an IC50 of 7 nM.

Compound `O=C(C=C1CCC2(CC1)OCCO2)N1CCC([C@H]2c3ncc(Br)cc3CCc3cc(Cl)cc(Br)c32)CC1` [Compound 21.0] showed an IC50 of 10.7 nM.

`CC(=O)OC1CCC(C(=O)N2CCC(C3c4ncc(Br)cc4CCc4cc(Cl)cc(Br)c43)CC2)CC1` (stereo not shown) [Compound 69.0] came in with an IC50 of 7.8 nM.

In turn, `NC(=O)NC1CCC(C(=O)N2CCC(C3c4ncc(Br)cc4CCc4cc(Cl)cc(Br)c43)CC2)CC1` (stereo not shown) [Compound 38.0] returned an IC50 of 6.2 nM.

In turn, `N[C@H]1CC[C@@H](C(=O)N2CCC([C@H]3c4ncc(Br)cc4CCc4cc(Cl)cc(Br)c43)CC2)CC1` [Compound 37.0] displayed an IC50 of 14 nM.

In turn, `O=C1CCC(C(=O)N2CCC([C@H]3c4ncc(Br)cc4CCc4cc(Cl)cc(Br)c43)CC2)CC1` [Compound 33.0] returned an IC50 of 5.1 nM.

Consider `CC(C)(C)[Si](C)(C)OCCON=C1CCC(CC(=O)N2CCC([C@H]3c4ncc(Br)cc4CCc4cc(Cl)cc(Br)c43)CC2)CC1` (stereo partly shown) [Compound 32.0], for which the IC50 was 97 nM.

Consider `O=C(C1CCC(O)CC1)N1CCC(C2c3ncc(Br)cc3CCc3cc(Cl)cc(Br)c32)CC1` (stereo not shown) [Compound 70.0], for which 11 nM corresponded to half-maximal inhibition (IC50).

Consider `NC(=O)C(=O)NC1CCCC(C(=O)N2CCC(C3c4ncc(Br)cc4CCc4cc(Cl)cc(Br)c43)CC2)C1` (stereo not shown) [Compound 49.1], for which the IC50 came out at 15.6 nM.

`O=C1CCC(CC(=O)N2CCC([C@H]3c4ncc(Br)cc4CCc4cc(Cl)cc(Br)c43)CC2)CC1` [Compound 13.0] yielded an IC50 of 2.2 nM.

In the case of `O=C(C1CCC(O)CC1)N1CCC(C2c3ncc(Br)cc3CCc3cc(Cl)cc(Br)c32)CC1` (stereo not shown) [Compound 68.0], the IC50 is above 160 nM.

The compound `NC1CCCC(C(=O)N2CCC(C3c4ncc(Br)cc4CCc4cc(Cl)cc(Br)c43)CC2)C1` (stereo not shown) [Compound 44.0] had an IC50 of 13.9 nM.

`CC(C)(C)OC(=O)NC1CCCC(C(=O)N2CCC(C3c4ncc(Br)cc4CCc4cc(Cl)cc(Br)c43)CC2)C1` (stereo not shown) [Compound 43.0]: the IC50 is 150 nM.

`CCOC(=O)C(=O)NC1CCC(C(=O)N2CCC(C3c4ncc(Br)cc4CCc4cc(Cl)cc(Br)c43)CC2)CC1` (stereo not shown) [Compound 39.0] yielded an IC50 of 23 nM.

With `O=C(O)CON=C1CCC(CC(=O)N2CCC([C@H]3c4ncc(Br)cc4CCc4cc(Cl)cc(Br)c43)CC2)CC1` (stereo partly shown) [Compound 31.0], the half-maximal inhibitory concentration (IC50) is 1.9 nM.

In turn, `CON=C1CCC(C(=O)N2CCC([C@H]3c4ncc(Br)cc4CCc4cc(Cl)cc(Br)c43)CC2)CC1` (stereo partly shown) [Compound 35.0] returned an IC50 of 8.2 nM.

Consider `O=C(CN1CCC(=NO)CC1)N1CCC([C@H]2c3ncc(Br)cc3CCc3cc(Cl)cc(Br)c32)CC1` [Compound 26.0], for which half-maximal inhibition (IC50) was put at 6 nM.

The compound `CS(=O)(=O)NC1CCC(C(=O)N2CCC(C3c4ncc(Br)cc4CCc4cc(Cl)cc(Br)c43)CC2)CC1` (stereo not shown) [Compound 40.0] came in with an IC50 of 2.9 nM.

In turn, `O=C(CC1CCC(=NO)CC1)N1CCC([C@H]2c3ncc(Br)cc3CCc3cc(Cl)cc(Br)c32)CC1` (stereo partly shown) [Compound 23.0] yielded an IC50 of 2.7 nM.

The subject of a further test is COS Cell. The experiment in a line: COS Cell IC50 (Cell-Based Assay). Particulars: COS cells, cell-based assay per WO 95/10516. The method, then:
as §1
`CC(=O)OC1CCC(C(=O)N2CCC(C3c4ncc(Br)cc4CCc4cc(Cl)cc(Br)c43)CC2)CC1` (stereo not shown) [Compound 69.0] returned an IC50 of 30 nM.
